Results taken from the NIST ThermoML archive (doi:10.1016/j.jct.2010.06.003).
Numbers after ± are expanded uncertainties.

Tests used:
[1] = Crystal; DTA
[2] = Molar enthalpy of transition or fusion; settings: Crystal; DSC

| Compound | Triple point temperature [1] [K] | Molar enthalpy of transition or fusion [2] [kJ/mol] |
| --- | --- | --- |
| O=c1oc2ccccc2cc1O [3-hydroxycoumarin] | 425.62 ± 0.39 | 27.1 ± 0.61 |
| O=c1cc(O)c2ccccc2o1 [4-hydroxycoumarin] | 483.62 ± 0.91 | 23.2 ± 0.59 |
